# US20150289513A1, “USE OF A COMPOUND COMPRISING A POLYFLUOROBENZYL MOIETY AGAINST INSECTICIDE-RESISTANT PESTS” (priority 2012, published 2015)
# What was measured:
# Assay in all cases: Glazed tile contact test, knock-down
# Type in all cases: in vivo
# [1] = tested on: Anopheles funestus (metabolic-resistant strain FUMOZ-R)
# Experimental: (§1) To produce a suitable preparation Transfluthrin was dissolved in acetone. The active compound solution was pipetted onto a glazed tile and, after drying, adult mosquitoes of the species: • Anopheles gambiae (target-site-resistant and metabolic-resistant strain: RSPH), • Anopheles gambiae (target-site-resitant and metabolic-resistant strain: Tiassalé), • Anopheles gambiae (tar et-site-resitant and metabolic-resistant strain: Akron), • Anopheles gambiae (target-site-resistant strain: VK7), and • Anopheles funestus (metabolic-resistant strain FUMOZ-R) were placed onto the treated tile (each strain was tested on separate tiles). The exposition time was 30 minutes.
# (§2) 0.25 hours, 0.5 hours, 1 hour, 2 hour, 3 hour, 4 hour and 24 hours after contact to the treated surface, the knock-down proportion of the test animals in % was determined. Here, 100% (effect) means that all mosquitoes have been killed; 0% (effect) means that none of the mosquitoes have been killed.
# Similarly as outlined in example 2 for Transfluthrin, Metofluthrin efficacy was assessed against • Anopheles gambiae (target-site-resistant and metabolic-resistant strain: RSPH), • Anopheles funestus (metabolic-resistant strain FUMOZ-R), and • Culex quinquefasciatus (metabolic-resistant to DDT; strain P00), with the results shown in Tables 10 to 12. 0.25 hours, 0.5 hours, 1 hour, 2 hour, 3 hour, 4 hour and 24 hours after contact to the treated surface, the knock-down proportion of the test animals in % is depicted in Tables 10 to 12. 100% (effect) means that all mosquitoes have been killed; 0% (effect) means that none of the mosquitoes have been killed.
# Similarly as outlined in example 2 for Transfluthrin, Metofluthrin efficacy was assessed against • Anopheles gambiae (target-site-resistant and metabolic-resistant strain: RSPH), • Anopheles funestus (metabolic-resistant strain FUMOZ-R), and with the results shown in Tables […]. 0.25 hours, 0.5 hours, 1 hour, 2 hour and 3 hours after contact to the treated surface, the knock-down proportion of the test animals in % is depicted in Tables 13 to 14. 100% (effect) means that all mosquitoes have been killed; 0% (effect) means that none of the mosquitoes have been killed.
# [2] = tested on: Anopheles gambiae (target-site-resistant strain: VK7)
# Experimental: as §1, §2
# [3] = tested on: Anopheles gambiae (strain: Akron)
# Experimental: as §1, §2
# [4] = 0.32 g/ha, 0.25 h after contact
# [5] = 0.064 g/ha, 0.25 h after contact
# [6] = 0.064 g/ha, 0.5 h after contact
smiles,measurement,setting,value
"CC=CC1C(C(=O)OCc2c(F)c(F)c(COC)c(F)c2F)C1(C)C (centres unmarked) [Metofluthrin, 2,3,5,6-Tetrafluoro-4-(methoxymethyl)benzyl 2,2-dimethyl-3-(prop-1-en-1-yl)cyclopropanecarboxylate]",Effect %,"[1]; 0.064 /ha, 0.25 h after contact",0%
same,Effect %,"[1]; 0.064 /ha, 0.5 h after contact",0%
same,Effect %,"[1]; 0.064 /ha, 1 h after contact",0%
same,Effect %,"[1]; 0.064 /ha, 2 h after contact",0%
same,Effect %,"[1]; 0.064 /ha, 3 h after contact",0%
same,Effect %,"[1]; 0.064 /ha, 4 h after contact",0%
same,Effect %,"[1]; 0.064 /ha, 24 h after contact",20%
same,Effect %,"[1]; 0.32 /ha, 0.25 h after contact",0%
same,Effect %,"[1]; 0.32 /ha, 0.5 h after contact",0%
same,Effect %,"[1]; 0.32 /ha, 1 h after contact",0%
same,Effect %,"[1]; 0.32 /ha, 2 h after contact",0%
same,Effect %,"[1]; 0.32 /ha, 3 h after contact",0%
same,Effect %,"[1]; 0.32 /ha, 4 h after contact",0%
same,Effect %,"[1]; 0.32 /ha, 24 h after contact",10%
same,Effect %,"[1]; 1.6 /ha, 0.25 h after contact",90%
same,Effect %,"[1]; 1.6 /ha, 0.5 h after contact",100%
same,Effect %,"[1]; 1.6 /ha, 1 h after contact",100%
same,Effect %,"[1]; 1.6 /ha, 2 h after contact",80%
same,Effect %,"[1]; 1.6 /ha, 3 h after contact",40%
same,Effect %,"[1]; 1.6 /ha, 4 h after contact",40%
same,Effect %,"[1]; 1.6 /ha, 24 h after contact",70%
same,Effect %,"[1]; 8 /ha, 0.25 h after contact",100%
same,Effect %,"[1]; 8 /ha, 0.5 h after contact",100%
same,Effect %,"[1]; 8 /ha, 1 h after contact",100%
same,Effect %,"[1]; 8 /ha, 2 h after contact",100%
same,Effect %,"[1]; 8 /ha, 3 h after contact",100%
same,Effect %,"[1]; 8 /ha, 4 h after contact",100%
same,Effect %,"[1]; 8 /ha, 24 h after contact",100%
same,Effect %,"[1]; 40 /ha, 0.25 h after contact",100%
same,Effect %,"[1]; 40 /ha, 0.5 h after contact",100%
same,Effect %,"[1]; 40 /ha, 1 h after contact",100%
same,Effect %,"[1]; 40 /ha, 2 h after contact",100%
same,Effect %,"[1]; 40 /ha, 3 h after contact",100%
same,Effect %,"[1]; 40 /ha, 4 h after contact",100%
same,Effect %,"[1]; 40 /ha, 24 h after contact",100%
same,Effect %,"[1]; 200 /ha, 0.25 h after contact",100%
same,Effect %,"[1]; 200 /ha, 0.5 h after contact",100%
same,Effect %,"[1]; 200 /ha, 1 h after contact",100%
same,Effect %,"[1]; 200 /ha, 2 h after contact",100%
same,Effect %,"[1]; 200 /ha, 3 h after contact",100%
same,Effect %,"[1]; 200 /ha, 4 h after contact",100%
same,Effect %,"[1]; 200 /ha, 24 h after contact",100%
same,Effect %,"[1]; 1000 /ha, 0.25 h after contact",100%
same,Effect %,"[1]; 1000 /ha, 0.5 h after contact",100%
same,Effect %,"[1]; 1000 /ha, 1 h after contact",100%
same,Effect %,"[1]; 1000 /ha, 2 h after contact",100%
same,Effect %,"[1]; 1000 /ha, 3 h after contact",100%
same,Effect %,"[1]; 1000 /ha, 4 h after contact",100%
same,Effect %,"[1]; 1000 /ha, 24 h after contact",100%
"CC1(C)[C@H](C=C(Cl)Cl)[C@H]1C(=O)OCc1c(F)c(F)cc(F)c1F [Transfluthrin, (1R,3S)-3-(2,2-Dichlorovinyl)-2,2-dimethyl-1-cyclopropanecarboxylic acid (2,3,5,6-tetrafluorophenyl)methyl ester]",Effect %,[1]; [4],95%
same,Effect %,"[1]; 0.32 g/ha, 0.5 h after contact",100%
same,Effect %,"[1]; 0.32 g/ha, 1 h after contact",100%
same,Effect %,"[1]; 0.32 g/ha, 2 h after contact",60%
same,Effect %,"[1]; 0.32 g/ha, 3 h after contact",40%
same,Effect %,"[1]; 0.32 g/ha, 4 h after contact",40%
same,Effect %,"[1]; 1.6 g/ha, 0.25 h after contact",100%
same,Effect %,"[1]; 1.6 g/ha, 0.5 h after contact",100%
same,Effect %,"[1]; 1.6 g/ha, 1 h after contact",100%
same,Effect %,"[1]; 1.6 g/ha, 2 h after contact",100%
same,Effect %,"[1]; 1.6 g/ha, 3 h after contact",95%
same,Effect %,"[1]; 1.6 g/ha, 4 h after contact",100%
same,Effect %,"[1]; 8 g/ha, 0.25 h after contact",100%
same,Effect %,"[1]; 8 g/ha, 0.5 h after contact",100%
same,Effect %,"[1]; 8 g/ha, 1 h after contact",100%
same,Effect %,"[1]; 8 g/ha, 2 h after contact",100%
same,Effect %,"[1]; 8 g/ha, 3 h after contact",100%
same,Effect %,"[1]; 8 g/ha, 4 h after contact",100%
same,Effect %,"[1]; 40 g/ha, 0.25 h after contact",100%
same,Effect %,"[1]; 40 g/ha, 0.5 h after contact",100%
same,Effect %,"[1]; 40 g/ha, 1 h after contact",100%
same,Effect %,"[1]; 40 g/ha, 2 h after contact",100%
same,Effect %,"[1]; 40 g/ha, 3 h after contact",100%
same,Effect %,"[1]; 40 g/ha, 4 h after contact",100%
same,Effect %,"[1]; 200 g/ha, 0.25 h after contact",100%
same,Effect %,"[1]; 200 g/ha, 0.5 h after contact",100%
same,Effect %,"[1]; 200 g/ha, 1 h after contact",100%
same,Effect %,"[1]; 200 g/ha, 2 h after contact",100%
same,Effect %,"[1]; 200 g/ha, 3 h after contact",100%
same,Effect %,"[1]; 200 g/ha, 4 h after contact",100%
same,Effect %,[2]; [5],5%
same,Effect %,[2]; [6],5%
same,Effect %,"[2]; 0.064 g/ha, 1 h after contact",5%
same,Effect %,"[2]; 0.064 g/ha, 2 h after contact",15%
same,Effect %,"[2]; 0.064 g/ha, 3 h after contact",15%
same,Effect %,"[2]; 0.064 g/ha, 4 h after contact",15%
same,Effect %,"[2]; 0.064 g/ha, 24 h after contact",25%
same,Effect %,[2]; [4],25%
same,Effect %,"[2]; 0.32 g/ha, 0.5 h after contact",35%
same,Effect %,"[2]; 0.32 g/ha, 1 h after contact",20%
same,Effect %,"[2]; 0.32 g/ha, 2 h after contact",20%
same,Effect %,"[2]; 0.32 g/ha, 3 h after contact",20%
same,Effect %,"[2]; 0.32 g/ha, 4 h after contact",25%
same,Effect %,"[2]; 0.32 g/ha, 24 h after contact",30%
same,Effect %,"[2]; 1.6 g/ha, 0.25 h after contact",80%
same,Effect %,"[2]; 1.6 g/ha, 0.5 h after contact",90%
same,Effect %,"[2]; 1.6 g/ha, 1 h after contact",85%
same,Effect %,"[2]; 1.6 g/ha, 2 h after contact",80%
same,Effect %,"[2]; 1.6 g/ha, 3 h after contact",65%
same,Effect %,"[2]; 1.6 g/ha, 4 h after contact",85%
same,Effect %,"[2]; 1.6 g/ha, 24 h after contact",65%
same,Effect %,"[2]; 8 g/ha, 0.25 h after contact",100%
same,Effect %,"[2]; 8 g/ha, 0.5 h after contact",100%
same,Effect %,"[2]; 8 g/ha, 1 h after contact",100%
same,Effect %,"[2]; 8 g/ha, 2 h after contact",100%
same,Effect %,"[2]; 8 g/ha, 3 h after contact",100%
same,Effect %,"[2]; 8 g/ha, 4 h after contact",100%
same,Effect %,"[2]; 8 g/ha, 24 h after contact",100%
same,Effect %,"[2]; 40 g/ha, 0.25 h after contact",100%
same,Effect %,"[2]; 40 g/ha, 0.5 h after contact",100%
same,Effect %,"[2]; 40 g/ha, 1 h after contact",100%
same,Effect %,"[2]; 40 g/ha, 2 h after contact",100%
same,Effect %,"[2]; 40 g/ha, 3 h after contact",100%
same,Effect %,"[2]; 40 g/ha, 4 h after contact",100%
same,Effect %,"[2]; 40 g/ha, 24 h after contact",100%
same,Effect %,"[2]; 200 g/ha, 0.25 h after contact",100%
same,Effect %,"[2]; 200 g/ha, 0.5 h after contact",100%
same,Effect %,"[2]; 200 g/ha, 1 h after contact",100%
same,Effect %,"[2]; 200 g/ha, 2 h after contact",100%
same,Effect %,"[2]; 200 g/ha, 3 h after contact",100%
same,Effect %,"[2]; 200 g/ha, 4 h after contact",100%
same,Effect %,"[2]; 200 g/ha, 24 h after contact",100%
same,Effect %,[3]; [5],5%
same,Effect %,[3]; [6],5%
same,Effect %,"[3]; 0.064 g/ha, 1 h after contact",10%
same,Effect %,"[3]; 0.064 g/ha, 2 h after contact",10%
same,Effect %,"[3]; 0.064 g/ha, 3 h after contact",5%
same,Effect %,"[3]; 0.064 g/ha, 4 h after contact",5%
same,Effect %,"[3]; 0.064 g/ha, 24 h after contact",15%
same,Effect %,[3]; [4],5%
same,Effect %,"[3]; 0.32 g/ha, 0.5 h after contact",0%
same,Effect %,"[3]; 0.32 g/ha, 1 h after contact",5%
same,Effect %,"[3]; 0.32 g/ha, 2 h after contact",5%
same,Effect %,"[3]; 0.32 g/ha, 3 h after contact",10%
same,Effect %,"[3]; 0.32 g/ha, 4 h after contact",5%
same,Effect %,"[3]; 0.32 g/ha, 24 h after contact",10%
same,Effect %,"[3]; 200 g/ha, 0.25 h after contact",100%
same,Effect %,"[3]; 200 g/ha, 0.5 h after contact",100%
